According to ChEMBL document CHEMBL5291721, “A preclinical secondary pharmacology resource illuminates target-adverse drug reaction associations of marketed drugs” (Nat Commun, 2023):

What was measured:
[1] = molecular target: T1, 5-hydroxytryptamine receptor 3A (Homo sapiens, UniProt P46098); assay type: functional
T1 sequence (P46098 whole entry): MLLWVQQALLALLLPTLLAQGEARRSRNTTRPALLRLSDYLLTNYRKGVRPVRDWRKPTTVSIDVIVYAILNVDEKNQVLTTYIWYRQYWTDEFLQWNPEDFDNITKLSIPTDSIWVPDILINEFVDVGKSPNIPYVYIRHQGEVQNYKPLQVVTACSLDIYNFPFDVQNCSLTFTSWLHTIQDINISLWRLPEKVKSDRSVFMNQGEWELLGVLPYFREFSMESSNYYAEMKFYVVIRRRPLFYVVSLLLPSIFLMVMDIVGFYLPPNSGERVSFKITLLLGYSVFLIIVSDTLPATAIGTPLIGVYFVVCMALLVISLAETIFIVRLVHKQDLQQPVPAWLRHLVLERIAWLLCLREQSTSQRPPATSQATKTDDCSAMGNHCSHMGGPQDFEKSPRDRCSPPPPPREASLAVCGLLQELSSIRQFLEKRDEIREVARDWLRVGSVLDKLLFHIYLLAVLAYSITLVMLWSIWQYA

[2] = molecular target: Growth hormone secretagogue receptor type 1 (Homo sapiens, UniProt Q92847)
Growth hormone secretagogue receptor type 1, sequence (Q92847 whole entry): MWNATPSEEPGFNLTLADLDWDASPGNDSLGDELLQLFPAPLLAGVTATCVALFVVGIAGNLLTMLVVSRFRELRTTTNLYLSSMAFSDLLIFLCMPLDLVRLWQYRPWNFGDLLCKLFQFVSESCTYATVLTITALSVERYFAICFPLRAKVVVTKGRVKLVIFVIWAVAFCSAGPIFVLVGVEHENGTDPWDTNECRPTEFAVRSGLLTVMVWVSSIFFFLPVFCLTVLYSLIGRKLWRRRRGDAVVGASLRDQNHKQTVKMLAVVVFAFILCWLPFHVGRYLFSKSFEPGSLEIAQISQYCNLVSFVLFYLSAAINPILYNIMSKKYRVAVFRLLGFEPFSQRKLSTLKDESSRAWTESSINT

[3] = molecular target: 5-hydroxytryptamine receptor 2B (Homo sapiens, UniProt P41595); assay type: functional, cell-based
5-hydroxytryptamine receptor 2B, sequence (P41595 whole entry): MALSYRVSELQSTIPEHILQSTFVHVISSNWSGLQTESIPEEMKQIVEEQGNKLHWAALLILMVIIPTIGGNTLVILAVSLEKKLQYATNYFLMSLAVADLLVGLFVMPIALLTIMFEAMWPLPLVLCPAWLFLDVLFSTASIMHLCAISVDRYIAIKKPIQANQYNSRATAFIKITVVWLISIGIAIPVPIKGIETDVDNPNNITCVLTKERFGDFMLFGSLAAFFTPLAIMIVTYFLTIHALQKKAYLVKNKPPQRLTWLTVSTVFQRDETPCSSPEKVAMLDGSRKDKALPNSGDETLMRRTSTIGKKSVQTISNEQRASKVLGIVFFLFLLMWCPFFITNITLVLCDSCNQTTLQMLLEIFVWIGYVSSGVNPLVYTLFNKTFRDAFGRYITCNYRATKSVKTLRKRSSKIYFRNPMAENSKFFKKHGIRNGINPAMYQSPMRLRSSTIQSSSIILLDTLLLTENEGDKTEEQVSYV

Motilin receptor = Motilin receptor (Homo sapiens, UniProt O43193)
Motilin receptor, sequence (O43193 whole entry): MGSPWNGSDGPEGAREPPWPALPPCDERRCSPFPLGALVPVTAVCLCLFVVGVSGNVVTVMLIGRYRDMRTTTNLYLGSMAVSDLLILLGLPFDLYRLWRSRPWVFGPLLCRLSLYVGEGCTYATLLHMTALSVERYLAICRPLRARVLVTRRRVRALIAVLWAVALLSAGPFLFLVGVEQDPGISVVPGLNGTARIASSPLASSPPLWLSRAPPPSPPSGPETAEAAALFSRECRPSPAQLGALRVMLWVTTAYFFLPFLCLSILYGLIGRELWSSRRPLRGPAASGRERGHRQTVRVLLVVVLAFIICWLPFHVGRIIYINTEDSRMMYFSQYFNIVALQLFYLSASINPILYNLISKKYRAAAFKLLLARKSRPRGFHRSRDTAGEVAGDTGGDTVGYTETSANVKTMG

[4] = molecular target: Voltage-dependent L-type calcium channel subunit alpha-1C (Rattus norvegicus, UniProt P22002); assay type: functional
Voltage-dependent L-type calcium channel subunit alpha-1C, sequence (P22002 whole entry): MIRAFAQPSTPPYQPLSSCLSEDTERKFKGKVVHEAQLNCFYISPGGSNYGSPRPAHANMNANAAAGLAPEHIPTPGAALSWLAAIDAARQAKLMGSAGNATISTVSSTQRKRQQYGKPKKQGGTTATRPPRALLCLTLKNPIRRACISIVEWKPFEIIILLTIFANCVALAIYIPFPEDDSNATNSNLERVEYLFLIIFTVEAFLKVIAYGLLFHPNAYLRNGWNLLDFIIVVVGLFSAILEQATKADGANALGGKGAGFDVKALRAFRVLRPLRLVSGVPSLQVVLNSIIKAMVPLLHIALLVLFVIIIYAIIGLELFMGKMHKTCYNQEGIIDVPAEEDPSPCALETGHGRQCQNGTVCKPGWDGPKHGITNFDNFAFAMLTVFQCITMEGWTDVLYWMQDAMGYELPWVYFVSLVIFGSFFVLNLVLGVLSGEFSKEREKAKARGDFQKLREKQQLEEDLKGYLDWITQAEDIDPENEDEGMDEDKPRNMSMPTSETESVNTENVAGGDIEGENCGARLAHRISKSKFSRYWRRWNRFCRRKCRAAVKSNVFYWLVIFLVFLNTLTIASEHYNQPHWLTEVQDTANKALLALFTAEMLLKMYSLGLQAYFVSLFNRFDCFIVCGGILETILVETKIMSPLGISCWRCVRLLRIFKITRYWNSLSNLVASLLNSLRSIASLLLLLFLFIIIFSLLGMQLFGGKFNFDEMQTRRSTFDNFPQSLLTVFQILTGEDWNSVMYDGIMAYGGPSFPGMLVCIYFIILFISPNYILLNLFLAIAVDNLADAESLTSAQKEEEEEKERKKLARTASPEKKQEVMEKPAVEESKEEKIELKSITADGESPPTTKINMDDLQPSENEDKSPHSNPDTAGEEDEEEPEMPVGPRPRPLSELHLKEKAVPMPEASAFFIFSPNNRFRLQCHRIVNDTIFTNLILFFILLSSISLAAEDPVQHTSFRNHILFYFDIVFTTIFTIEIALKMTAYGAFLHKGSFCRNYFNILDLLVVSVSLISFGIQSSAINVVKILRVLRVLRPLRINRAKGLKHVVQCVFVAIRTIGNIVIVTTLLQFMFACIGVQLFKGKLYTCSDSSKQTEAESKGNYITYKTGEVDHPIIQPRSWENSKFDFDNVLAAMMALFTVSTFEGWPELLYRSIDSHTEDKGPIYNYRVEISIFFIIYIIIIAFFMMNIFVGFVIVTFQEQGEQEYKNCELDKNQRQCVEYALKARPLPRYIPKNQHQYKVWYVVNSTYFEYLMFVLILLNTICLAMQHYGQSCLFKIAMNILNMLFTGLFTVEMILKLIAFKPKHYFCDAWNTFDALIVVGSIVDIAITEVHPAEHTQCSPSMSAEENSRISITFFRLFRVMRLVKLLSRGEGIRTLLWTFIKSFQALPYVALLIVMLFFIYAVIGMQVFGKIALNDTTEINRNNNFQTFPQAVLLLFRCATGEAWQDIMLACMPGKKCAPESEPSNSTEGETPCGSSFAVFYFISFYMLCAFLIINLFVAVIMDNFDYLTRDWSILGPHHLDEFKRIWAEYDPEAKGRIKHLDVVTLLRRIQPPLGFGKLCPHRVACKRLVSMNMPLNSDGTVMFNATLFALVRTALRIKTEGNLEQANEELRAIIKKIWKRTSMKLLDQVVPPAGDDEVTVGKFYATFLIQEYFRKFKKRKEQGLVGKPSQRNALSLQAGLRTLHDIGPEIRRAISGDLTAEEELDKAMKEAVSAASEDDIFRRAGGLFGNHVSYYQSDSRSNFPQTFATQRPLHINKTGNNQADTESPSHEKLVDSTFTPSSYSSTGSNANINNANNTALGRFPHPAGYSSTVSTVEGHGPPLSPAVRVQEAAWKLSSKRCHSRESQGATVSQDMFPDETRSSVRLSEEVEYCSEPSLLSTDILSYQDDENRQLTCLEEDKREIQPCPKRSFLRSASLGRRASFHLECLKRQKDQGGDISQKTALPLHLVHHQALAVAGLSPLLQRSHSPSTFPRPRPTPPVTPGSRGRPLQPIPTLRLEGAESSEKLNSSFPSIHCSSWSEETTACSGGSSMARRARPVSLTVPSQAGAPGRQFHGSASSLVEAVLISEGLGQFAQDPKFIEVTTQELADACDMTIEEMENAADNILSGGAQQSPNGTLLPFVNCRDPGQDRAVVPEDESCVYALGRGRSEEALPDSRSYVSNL

[5] = molecular target: T2, Muscarinic acetylcholine receptor M1 (Homo sapiens, UniProt P11229); assay type: functional
T2 sequence (P11229 whole entry): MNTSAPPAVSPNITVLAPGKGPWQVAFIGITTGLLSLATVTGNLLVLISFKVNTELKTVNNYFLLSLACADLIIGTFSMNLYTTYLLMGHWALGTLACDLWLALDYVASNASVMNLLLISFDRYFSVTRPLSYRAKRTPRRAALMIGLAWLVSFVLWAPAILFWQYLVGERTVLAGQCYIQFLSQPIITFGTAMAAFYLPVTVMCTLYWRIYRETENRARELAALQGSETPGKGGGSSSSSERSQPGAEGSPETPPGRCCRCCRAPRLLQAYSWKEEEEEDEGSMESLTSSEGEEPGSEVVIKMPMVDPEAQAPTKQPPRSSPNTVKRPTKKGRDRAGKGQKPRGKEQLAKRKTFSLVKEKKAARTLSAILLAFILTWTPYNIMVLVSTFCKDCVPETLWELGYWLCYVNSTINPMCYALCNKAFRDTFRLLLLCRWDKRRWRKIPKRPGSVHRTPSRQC

[6] = molecular target: Kappa-type opioid receptor (Homo sapiens, UniProt P41145)
Kappa-type opioid receptor, sequence (P41145 whole entry): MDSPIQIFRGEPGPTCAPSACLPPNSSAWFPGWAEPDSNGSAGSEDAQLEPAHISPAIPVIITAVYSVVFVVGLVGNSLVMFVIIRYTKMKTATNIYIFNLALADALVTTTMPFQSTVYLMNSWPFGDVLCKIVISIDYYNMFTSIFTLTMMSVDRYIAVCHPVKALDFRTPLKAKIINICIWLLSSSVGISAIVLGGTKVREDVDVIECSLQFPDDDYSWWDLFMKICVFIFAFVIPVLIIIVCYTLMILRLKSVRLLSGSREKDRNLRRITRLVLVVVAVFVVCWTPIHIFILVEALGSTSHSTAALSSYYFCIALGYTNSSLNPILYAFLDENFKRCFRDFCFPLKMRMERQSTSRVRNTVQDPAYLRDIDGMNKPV

D(3) dopamine receptor = D(3) dopamine receptor (Homo sapiens, UniProt P35462)
[7] = molecular target: T3, Neuropeptide Y receptor type 1 (Homo sapiens, UniProt P25929)
T3 sequence (P25929 whole entry): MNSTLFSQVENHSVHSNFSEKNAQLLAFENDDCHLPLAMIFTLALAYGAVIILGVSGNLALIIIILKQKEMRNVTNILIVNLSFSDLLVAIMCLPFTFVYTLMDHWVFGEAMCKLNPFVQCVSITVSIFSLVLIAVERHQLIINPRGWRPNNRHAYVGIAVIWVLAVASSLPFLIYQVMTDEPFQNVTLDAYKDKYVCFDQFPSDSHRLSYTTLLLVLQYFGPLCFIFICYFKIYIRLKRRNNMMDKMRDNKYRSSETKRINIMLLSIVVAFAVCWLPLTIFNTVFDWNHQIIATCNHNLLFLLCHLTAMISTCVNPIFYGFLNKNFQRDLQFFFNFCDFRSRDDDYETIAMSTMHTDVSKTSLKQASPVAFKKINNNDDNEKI

B2 bradykinin receptor = molecular target: T4, B2 bradykinin receptor (Homo sapiens, UniProt P30411)
T4 sequence (P30411 whole entry): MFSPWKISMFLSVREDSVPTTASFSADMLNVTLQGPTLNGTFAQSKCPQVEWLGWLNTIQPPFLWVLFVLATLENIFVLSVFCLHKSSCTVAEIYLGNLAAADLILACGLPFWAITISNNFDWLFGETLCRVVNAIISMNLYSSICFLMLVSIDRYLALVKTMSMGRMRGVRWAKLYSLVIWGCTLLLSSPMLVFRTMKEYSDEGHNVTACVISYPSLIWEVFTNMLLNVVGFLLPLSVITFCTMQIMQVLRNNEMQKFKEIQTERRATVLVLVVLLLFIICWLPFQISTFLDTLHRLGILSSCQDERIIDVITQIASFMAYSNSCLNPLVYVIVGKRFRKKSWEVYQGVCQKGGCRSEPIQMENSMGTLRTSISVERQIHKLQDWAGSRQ

[8] = molecular target: Neuronal acetylcholine receptor subunit alpha-4 (Homo sapiens, UniProt P43681)
Neuronal acetylcholine receptor subunit alpha-4, sequence (P43681 whole entry): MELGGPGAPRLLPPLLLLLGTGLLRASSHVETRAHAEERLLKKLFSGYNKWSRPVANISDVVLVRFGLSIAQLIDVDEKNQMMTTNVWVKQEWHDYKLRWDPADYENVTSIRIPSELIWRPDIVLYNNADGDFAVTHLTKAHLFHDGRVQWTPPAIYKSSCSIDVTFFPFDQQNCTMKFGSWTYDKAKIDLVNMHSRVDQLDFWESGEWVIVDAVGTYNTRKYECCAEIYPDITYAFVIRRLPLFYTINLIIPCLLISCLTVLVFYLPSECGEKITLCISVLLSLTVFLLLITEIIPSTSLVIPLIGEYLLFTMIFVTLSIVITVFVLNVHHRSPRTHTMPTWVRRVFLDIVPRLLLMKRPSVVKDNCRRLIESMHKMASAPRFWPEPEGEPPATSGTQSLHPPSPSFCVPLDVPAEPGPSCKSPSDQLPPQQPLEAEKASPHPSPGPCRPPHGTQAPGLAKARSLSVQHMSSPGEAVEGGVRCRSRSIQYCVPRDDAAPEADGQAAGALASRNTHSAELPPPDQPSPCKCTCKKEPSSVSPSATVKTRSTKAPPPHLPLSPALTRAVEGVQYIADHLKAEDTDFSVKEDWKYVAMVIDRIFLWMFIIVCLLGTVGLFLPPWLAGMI

[9] = molecular target: Sodium-dependent dopamine transporter (Homo sapiens, UniProt Q01959)
Sodium-dependent dopamine transporter, sequence (Q01959 whole entry): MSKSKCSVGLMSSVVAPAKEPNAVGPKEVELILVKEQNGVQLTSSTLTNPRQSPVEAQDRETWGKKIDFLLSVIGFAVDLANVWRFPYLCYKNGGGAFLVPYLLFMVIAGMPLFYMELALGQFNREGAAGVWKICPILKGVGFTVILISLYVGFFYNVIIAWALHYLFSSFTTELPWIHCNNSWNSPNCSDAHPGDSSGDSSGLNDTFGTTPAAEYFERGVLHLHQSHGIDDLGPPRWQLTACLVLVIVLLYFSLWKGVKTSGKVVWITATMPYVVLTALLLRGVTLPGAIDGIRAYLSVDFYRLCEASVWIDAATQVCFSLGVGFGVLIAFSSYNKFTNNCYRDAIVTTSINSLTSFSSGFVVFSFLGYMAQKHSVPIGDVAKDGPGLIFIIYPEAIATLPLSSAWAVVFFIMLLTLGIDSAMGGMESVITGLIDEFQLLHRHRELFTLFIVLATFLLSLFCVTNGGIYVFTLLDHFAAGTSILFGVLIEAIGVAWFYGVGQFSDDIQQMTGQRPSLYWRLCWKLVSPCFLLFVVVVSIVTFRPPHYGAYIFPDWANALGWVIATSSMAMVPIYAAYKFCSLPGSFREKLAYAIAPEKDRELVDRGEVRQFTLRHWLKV

Adenosine receptor A1 = molecular target: T5, Adenosine receptor A1 (Homo sapiens, UniProt P30542)
T5 sequence (P30542 whole entry): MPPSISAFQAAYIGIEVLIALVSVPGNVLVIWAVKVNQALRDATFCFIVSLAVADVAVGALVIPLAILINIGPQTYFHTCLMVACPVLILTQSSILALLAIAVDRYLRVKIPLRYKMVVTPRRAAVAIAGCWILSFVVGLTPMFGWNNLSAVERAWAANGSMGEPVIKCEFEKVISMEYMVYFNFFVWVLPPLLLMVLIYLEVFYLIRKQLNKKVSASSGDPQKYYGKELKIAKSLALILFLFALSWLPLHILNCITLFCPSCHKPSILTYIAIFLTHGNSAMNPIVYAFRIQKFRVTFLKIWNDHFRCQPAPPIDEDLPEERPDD
Also: assay procedure not described here.

Row | SMILES | AC50 [1] | AC50 [2] | AC50 [3] | AC50 (Motilin receptor) | AC50 [4] | AC50 [5] | AC50 [6] | AC50 (D(3) dopamine receptor) | AC50 [7] | AC50 (B2 bradykinin receptor) | AC50 [8] | AC50 [9] | AC50 (Adenosine receptor A1)
1 | CC(C)(Oc1ccc(Cl)cc1)C(=O)OCCOC(=O)c1cccnc1 [ETOFIBRATE] | > 30 µM | > 30 µM | > 30 µM | > 30 µM | > 30 µM | > 30 µM | > 30 µM | > 30 µM | > 30 µM | > 30 µM | > 30 µM | > 30 µM | 
2 | OC(CN1CCCCC1)c1cc(-c2ccccc2)on1 (stereo not drawn) [PERISOXAL] |  |  |  |  |  |  |  |  |  |  |  |  | > 30 µM
3 | CC1(C)C[C@@H]1C(=O)N/C(=C\CCCCSC[C@H](N)C(=O)O)C(=O)O [CILASTATIN] |  |  |  |  |  |  |  |  |  |  |  |  | > 30 µM
4 | CC(=O)Nc1ccc(/C=N/NC(N)=S)cc1 [AMITHIOZONE] |  |  |  |  |  |  |  |  |  |  |  |  | > 30 µM
5 | O=C1Nc2ccccc2C1(c1ccc(O)cc1)c1ccc(O)cc1 [OXYPHENISATINE] |  |  |  |  |  |  |  |  |  |  |  |  | > 30 µM
6 | CSCC[C@H](N)C(=O)O [METHIONINE] |  |  |  |  |  |  |  |  |  |  |  |  | > 30 µM
7 | COCC(=O)O[C@]1(CCN(C)CCCc2nc3ccccc3[nH]2)CCc2cc(F)ccc2[C@@H]1C(C)C [MIBEFRADIL] |  |  |  |  |  |  |  |  |  |  |  |  | > 30 µM
8 | CCn1c(=O)c2c(nc(/C=C/c3ccc(OC)c(OC)c3)n2C)n(CC)c1=O [ISTRADEFYLLINE] |  |  |  |  |  | > 30 µM |  |  |  |  | > 30 µM | > 30 µM | 
9 | CC1=C(/C=C/C(C)=C/C=C/C(C)=C\C(=O)O)C(C)(C)CCC1 [ISOTRETINOIN] |  |  |  |  |  |  |  |  |  |  |  |  | > 30 µM
10 | CC1(C)O[C@@H]2C[C@H]3[C@@H]4CCC5=CC(=O)C=C[C@]5(C)[C@@]4(F)[C@@H](O)C[C@]3(C)[C@]2(C(=O)CO)O1 [TRIAMCINOLONE ACETONIDE] | > 30 µM | > 30 µM | > 30 µM | > 30 µM | > 30 µM |  | > 30 µM | > 30 µM | > 30 µM | > 30 µM | > 30 µM | > 30 µM | 
11 | C[C@]12CCC(=O)C=C1[C@@H]1C[C@@H]1[C@H]1[C@@H]3[C@@H]4C[C@@H]4[C@@]4(CCC(=O)O4)[C@@]3(C)CC[C@@H]12 [DROSPIRENONE] | > 30 µM | > 30 µM |  | > 30 µM | > 30 µM | > 30 µM | > 30 µM | > 30 µM | > 30 µM | > 30 µM | > 30 µM | > 30 µM | 
12 | COc1ccc(-c2cc(=S)ss2)cc1 [ANETHOLTRITHION] | > 10 µM | > 30 µM | > 30 µM | > 10 µM | > 30 µM | > 30 µM | > 30 µM | > 30 µM | 9.8 µM | > 30 µM | 9.2 µM | 10 µM | 
13 | CN(C)CCC(O)(c1ccccc1)c1ccccc1Cl (stereo not drawn) [CHLOPHEDIANOL] | > 30 µM | > 10 µM | > 10 µM | > 10 µM | > 10 µM | > 10 µM | 7.1 µM | > 30 µM | > 10 µM | > 10 µM | > 10 µM | > 10 µM | 
14 | COc1cccc2c1C(=O)c1c(O)c3c(c(O)c1C2=O)C[C@@](O)(C(=O)CO)C[C@@H]3O[C@H]1C[C@H](N)[C@H](O)[C@H](C)O1 [DOXORUBICIN] | > 30 µM | > 30 µM | 15 µM | > 30 µM | > 10 µM |  | > 10 µM | > 30 µM | > 30 µM | > 30 µM | > 30 µM | > 30 µM | 
15 | CN(C)[C@@H]1C(O)=C(C(=O)NCN2CCCC2)C(=O)[C@@]2(O)C(O)=C3C(=O)c4c(O)cccc4[C@@](C)(O)[C@H]3C[C@@H]12 [ROLITETRACYCLINE] | > 30 µM | > 10 µM | > 10 µM | > 10 µM | > 10 µM | > 10 µM | > 10 µM | > 30 µM | > 10 µM | > 10 µM | > 10 µM | > 10 µM | 
16 | C[C@]12C=CC(=O)C=C1CC[C@@H]1[C@@H]2[C@@H](O)C[C@@]2(C)[C@H]1CC[C@]2(O)C(=O)CO [PREDNISOLONE] | > 30 µM | > 30 µM | > 10 µM | > 10 µM | > 10 µM |  | > 10 µM | > 30 µM | > 30 µM | > 30 µM | > 10 µM | > 30 µM | 
17 | C[C@]12CCC(=O)C=C1C=C[C@@H]1[C@@H]2CC[C@@]2(C)[C@H]1CC[C@@]21CCC(=O)O1 [CANRENONE] | > 30 µM | > 30 µM | > 30 µM | > 30 µM | > 30 µM | > 30 µM | 19 µM | > 30 µM | > 30 µM | > 30 µM | > 30 µM | > 30 µM | 
18 | C[C@]12C=CC(=O)C=C1C(Cl)=C[C@@H]1[C@@H]2[C@@H](O)C[C@@]2(C)[C@H]1CC[C@]2(O)C(=O)CO [CLOPREDNOL] | > 30 µM | > 30 µM | > 30 µM | 16 µM |  | > 30 µM | > 30 µM | > 30 µM | > 30 µM | > 3 µM | > 30 µM | > 30 µM | 
19 | Cc1cn(-c2cc(NC(=O)c3ccc(C)c(Nc4nccc(-c5cnccn5)n4)c3)cc(C(F)(F)F)c2)cn1 [RADOTINIB] |  |  |  |  |  | > 30 µM |  |  |  |  | 27 µM | > 30 µM | 
20 | CCC(=O)c1ccc2c(c1)N(CC(C)N(C)C)c1ccccc1S2 (stereo not drawn) [PROPIOMAZINE] | > 30 µM | > 10 µM | 0.23 µM | > 10 µM | > 10 µM | 0.12 µM | 1.7 µM | 0.53 µM | > 10 µM | > 10 µM | > 10 µM | > 10 µM | 
21 | Cc1ccc(O)c([C@H](CCN(C(C)C)C(C)C)c2ccccc2)c1 [TOLTERODINE] | > 10 µM |  | > 10 µM |  | > 10 µM | 0.0051 µM | 6.71 µM | > 10 µM |  |  | > 10 µM | > 10 µM | 
22 | Oc1cc(Cl)ccc1Oc1ccc(Cl)cc1Cl [TRICLOSAN] |  | > 30 µM | > 30 µM | > 30 µM |  | > 30 µM | > 30 µM | > 30 µM | > 30 µM | > 30 µM | > 30 µM | 24 µM | 
